Test results from US6458770B1, “Parenteral formulations comprising carbamazepine or its derivatives” (Novartis AG, priority 1997, dated 2002).

Test: Solubility of the active agent in water
Assay type: physicochemical
Details: 25° C., pH of 5.8 to 6.0
Description: A wide range of container sizes may be employed. Container size may be conveniently categorised as Low-Volume, i.e. 100 ml or less and High-Volume, i.e. above 100 ml and typically 250 ml. […] parenteral formulations could of course be employed but this may require the use of an organic co-solvent or other solubilising aid which is less desirable than a totally water-based formulation.

- solubility in water: 3200 to 4200 µg/mL
SMILES: NC(=O)N1c2ccccc2CC(O)c2ccccc21 (stereo not shown) [COMPOUND A, 10-hydroxy-10,11-tetrahydrocarbamazepine]
